Measurements taken from patent publication US12649750B2, “Macrocyclic compounds, compositions, and methods of using thereof” (Sionna Therapeutics Inc., priority 2022, dated 2026).

Tests used:
CFTR = molecular target: T1, CFTR (Homo sapiens, UniProt P13569, DEL508-508); assay: TECC24 AUC fold over DMSO @10 μM, CFTR-mediated transepithelial chloride transport in CF-HBE cells; format: cell-based; conditions: test agent AUC divided by DMSO vehicle AUC, primary CF-HBE cells, ΔF508 homozygous donor, 48 hours incubation
T1 construct: Primary human bronchial epithelial cells from a ΔF508 homozygous CF donor; host or cells: primary human bronchial epithelial cells (CF-HBE), ΔF508 homozygous donor
Summary of the method: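 Primary ΔF508-homozygous CF bronchial epithelial cells on inserts were incubated 48 h at 36.5 °C with compound in IL-13-containing medium. VT and TEER were then recorded in current-clamp mode (pH 7.4 HEPES bath) with benzamil 10 μM, forskolin 10 μM, then CFTR inhibitor-172 20 μM. The IEQ AUC between forskolin and inhibitor was divided by vehicle AUC.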

NBD1 = molecular target: T2, NBD1 (Homo sapiens, UniProt P13569); assay: Aggregation analysis using differential static light scattering (DSLS), thermal stability of NBD1 (ΔTagg); format: binding; conditions: ΔTagg versus DMSO control, NBD1 0.2 mg/ml
T2 construct: Purified recombinant NBD1 was produced using previously described methods; made in house
Summary of the method: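 Read-out is ΔTagg: the aggregation temperature, taken at the inflection of the light-scattering curve, less the average of DMSO control wells. Recombinant NBD1 (0.2 mg/ml, pH7.6 buffer containing 2 mM ATP) with test compound was heated at 1° C. per minute up to 70° C.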

T2 sequence (P13569 423-646 limits assumed): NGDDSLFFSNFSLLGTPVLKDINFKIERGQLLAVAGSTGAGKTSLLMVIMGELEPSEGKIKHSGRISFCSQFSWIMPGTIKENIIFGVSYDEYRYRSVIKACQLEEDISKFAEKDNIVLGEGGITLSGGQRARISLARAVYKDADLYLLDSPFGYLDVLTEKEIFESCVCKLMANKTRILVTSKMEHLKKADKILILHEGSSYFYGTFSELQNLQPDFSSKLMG
T1 sequence (P13569 with tags, fused parts or gaps DEL508-508): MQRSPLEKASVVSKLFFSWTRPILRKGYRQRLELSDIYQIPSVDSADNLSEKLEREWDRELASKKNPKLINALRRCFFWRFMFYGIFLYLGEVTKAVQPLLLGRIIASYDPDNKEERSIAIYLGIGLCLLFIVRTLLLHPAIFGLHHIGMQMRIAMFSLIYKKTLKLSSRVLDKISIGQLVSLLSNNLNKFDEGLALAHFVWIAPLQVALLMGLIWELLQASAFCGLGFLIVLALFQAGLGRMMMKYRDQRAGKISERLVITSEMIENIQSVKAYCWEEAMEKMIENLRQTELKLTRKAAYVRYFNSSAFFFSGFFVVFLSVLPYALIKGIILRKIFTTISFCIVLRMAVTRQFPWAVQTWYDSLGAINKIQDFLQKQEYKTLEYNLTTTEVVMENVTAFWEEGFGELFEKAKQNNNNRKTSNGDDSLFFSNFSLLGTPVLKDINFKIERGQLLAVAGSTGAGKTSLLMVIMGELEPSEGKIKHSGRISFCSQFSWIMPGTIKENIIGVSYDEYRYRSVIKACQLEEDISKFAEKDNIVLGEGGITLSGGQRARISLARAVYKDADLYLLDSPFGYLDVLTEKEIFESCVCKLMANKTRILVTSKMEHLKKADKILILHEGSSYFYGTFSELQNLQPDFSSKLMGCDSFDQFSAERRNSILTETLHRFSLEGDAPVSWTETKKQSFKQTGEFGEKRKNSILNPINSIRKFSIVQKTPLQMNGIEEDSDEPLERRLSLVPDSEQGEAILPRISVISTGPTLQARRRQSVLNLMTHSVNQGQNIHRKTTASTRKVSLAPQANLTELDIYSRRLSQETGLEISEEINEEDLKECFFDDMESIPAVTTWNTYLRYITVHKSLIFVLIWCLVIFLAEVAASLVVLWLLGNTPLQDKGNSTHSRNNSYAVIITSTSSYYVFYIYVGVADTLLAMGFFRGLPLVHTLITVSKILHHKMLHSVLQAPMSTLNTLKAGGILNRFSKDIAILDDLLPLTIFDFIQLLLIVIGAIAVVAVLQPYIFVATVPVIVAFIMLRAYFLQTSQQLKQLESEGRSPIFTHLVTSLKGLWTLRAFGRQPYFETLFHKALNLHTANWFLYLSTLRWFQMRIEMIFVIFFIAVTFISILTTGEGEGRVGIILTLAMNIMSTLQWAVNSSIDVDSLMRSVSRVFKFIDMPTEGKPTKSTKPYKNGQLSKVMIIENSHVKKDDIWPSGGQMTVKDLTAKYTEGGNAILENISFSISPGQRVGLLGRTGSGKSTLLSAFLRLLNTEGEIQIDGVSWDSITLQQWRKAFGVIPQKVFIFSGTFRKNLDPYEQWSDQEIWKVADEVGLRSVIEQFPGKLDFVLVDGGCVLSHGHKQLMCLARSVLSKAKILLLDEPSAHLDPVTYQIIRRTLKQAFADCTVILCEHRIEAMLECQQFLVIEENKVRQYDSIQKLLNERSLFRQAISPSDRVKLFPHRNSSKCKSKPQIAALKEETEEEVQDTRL

| SMILES | TECC (AUC, 10 μM) (CFTR) | DSLS 3D (100 μM ΔT) (NBD1) |
| --- | --- | --- |
| COC(Cc1cccc(C2(C)CCCC(C)(C)CS(=O)(=O)CCc3c(c(F)cc4[nH]ccc34)Oc3ccc(F)c(c3)-c3nc2nn3C)c1)C(=O)O (single isomer, unassigned) [Compound 135A, 3-[3-(22,28-Difluoro-3,6,10,10-tetramethyl-12,12-dioxo-24-oxa-12λ6-thia-3,4,19,30-tetrazapentacyclo-[23.3.1.12,5.015,23.016,20]triaconta-1(29),2(30),4,15,17,20,22,25,27-nonaen-6-yl)phenyl]-2-methoxy-propanoic Acid] | A (a TECC value less than 12 is marked “A”) | A (an ΔTagg value less than or equal to 5 °C is marked “A”) |
| COC(Cc1cccc(C2(C)CCCC(C)(C)CS(=O)(=O)CCc3c(c(F)cc4[nH]ccc34)Oc3ccc(F)c(c3)-c3nc2nn3C)c1)C(=O)O (single isomer, unassigned) [Compound 135B, 3-[3-(22,28-Difluoro-3,6,10,10-tetramethyl-12,12-dioxo-24-oxa-12λ6-thia-3,4,19,30-tetrazapentacyclo-[23.3.1.12,5.015,23.016,20]triaconta-1(29),2(30),4,15,17,20,22,25,27-nonaen-6-yl)phenyl]-2-methoxy-propanoic Acid] | C (a value between 20 and 80 is marked “C”) | C (a value greater than 10 °C and less than or equal to 25 °C is marked “C”) |
| CC(Cc1cccc(C2(CN)CCCC(C)(C)CS(=O)(=O)CCc3c(c(F)cc4[nH]ccc34)Oc3ccc(F)c(c3)-c3nc2nn3C)c1)C(=O)O (single isomer, unassigned) [Compound 136A, 3-[3-[6-(aminomethyl)-22,28-difluoro-3,10,10-trimethyl-12,12-dioxo-24-oxa-12λ6-thia-3,4,19,30-tetrazapentacyclo-[23.3.1.12,5.015,23.016,20]triaconta-1(29),2(30),4,15,17,20,22,25,27-nonaen-6-yl]phenyl]-2-methyl-propanoic Acid] | A (a TECC value less than 12 is marked “A”) | A (an ΔTagg value less than or equal to 5 °C is marked “A”) |
| CC(Cc1cccc(C2(CN)CCCC(C)(C)CS(=O)(=O)CCc3c(c(F)cc4[nH]ccc34)Oc3ccc(F)c(c3)-c3nc2nn3C)c1)C(=O)O (single isomer, unassigned) [Compound 136B, 3-[3-[6-(aminomethyl)-22,28-difluoro-3,10,10-trimethyl-12,12-dioxo-24-oxa-12λ6-thia-3,4,19,30-tetrazapentacyclo-[23.3.1.12,5.015,23.016,20]triaconta-1(29),2(30),4,15,17,20,22,25,27-nonaen-6-yl]phenyl]-2-methyl-propanoic Acid] | C (a value between 20 and 80 is marked “C”) | C (a value greater than 10 °C and less than or equal to 25 °C is marked “C”) |
| CC(Cc1cccc(C2(CNCC(F)F)CCCC(C)(C)CS(=O)(=O)CCc3c(c(F)cc4[nH]ccc34)Oc3ccc(F)c(c3)-c3nc2nn3C)c1)C(=O)O (single isomer, unassigned) [Compound 137B, 3-[3-[6-[(2,2-difluoroethylamino)methyl]-22,28-difluoro-3,10,10-trimethyl-12,12-dioxo-24-oxa-12λ6-thia-3,4,19,30-tetrazapentacyclo[23.3.1.12,5.015,23.016,20]triaconta-1(29),2(30),4,15,17,20,22,25,27-nonaen-6-yl]phenyl]-2-methyl-propanoic Acid] | A (a TECC value less than 12 is marked “A”) | B (a value above 5 °C and less than or equal to 10 °C is marked “B”) |
| CC(C)OC(=O)[C@@H](C)Cc1cccc(C2(C)CCCC(C)(C)CS(=O)(=O)CCc3c(c(F)cc4[nH]ccc34)Oc3ccc(F)c(c3)-c3nc2nn3C)c1 (single isomer, unassigned) [Compound 139] | C (a value between 20 and 80 is marked “C”) | B (a value above 5 °C and less than or equal to 10 °C is marked “B”) |
| C[C@@H](Cc1cccc(C2(C)CCCC(C)(C)CS(=O)(=O)CCc3c(c(F)cc4[nH]ccc34)Oc3ccc(F)c(c3)-c3nc2nn3C)c1)C(=O)OCCO (single isomer, unassigned) [Compound 140] | B (a value between 12-20 is marked “B”) | C (a value greater than 10 °C and less than or equal to 25 °C is marked “C”) |
| C[C@@H](Cc1cccc(C2(C)CCCC(C)(C)CS(=O)(=O)CCc3c(c(F)cc4[nH]ccc34)Oc3ccc(F)c(c3)-c3nc2nn3C)c1)C(=O)OCC(O)CO (single isomer, unassigned) [Compound 141] | B (a value between 12-20 is marked “B”) | C (a value greater than 10 °C and less than or equal to 25 °C is marked “C”) |
| C[C@@H](Cc1cccc(C2(C)CCCC(C)(C)CS(=O)(=O)CCc3c(c(F)cc4[nH]ccc34)Oc3ccc(F)c(c3)-c3nc2nn3C)c1)C(=O)OCCN1CCOCC1 (single isomer, unassigned) [Compound 142] | B (a value between 12-20 is marked “B”) | B (a value above 5 °C and less than or equal to 10 °C is marked “B”) |
| C[C@@H](Cc1cccc(C2(C)CCCC(C)(C)CS(=O)(=O)CCc3c(c(F)cc4[nH]ccc34)Oc3ccc(F)c(c3)-c3nc2nn3C)c1)C(=O)OCCN1CCN(C)CC1 (single isomer, unassigned) [Compound 143] | B (a value between 12-20 is marked “B”) | B (a value above 5 °C and less than or equal to 10 °C is marked “B”) |
| C[C@@H](Cc1cccc(C2(C)CCCC(C)(C)CS(=O)(=O)CCc3c(c(F)cc4[nH]ccc34)Oc3ccc(F)c(c3)-c3nc2nn3C)c1)C(=O)OCc1coc(=O)o1 (single isomer, unassigned) [Compound 144] | B (a value between 12-20 is marked “B”) | C (a value greater than 10 °C and less than or equal to 25 °C is marked “C”) |
| C[C@@H](Cc1cccc(C2(C)CCCC(C)(C)CS(=O)(=O)CCc3c(c(F)cc4[nH]ccc34)Oc3ccc(F)c(c3)-c3nc2nn3C)c1)C(=O)OCOC(=O)C(C)(C)C (single isomer, unassigned) [Compound 145] | C (a value between 20 and 80 is marked “C”) | A (an ΔTagg value less than or equal to 5 °C is marked “A”) |
| C[C@@H](Cc1cccc(C2(C)CCCC(C)(C)CS(=O)(=O)CCc3c(c(F)cc4[nH]ccc34)Oc3ccc(F)c(c3)-c3nc2nn3C)c1)C(=O)NS(C)(=O)=O (single isomer, unassigned) [Compound 146] | A (a TECC value less than 12 is marked “A”) | C (a value greater than 10 °C and less than or equal to 25 °C is marked “C”) |
| CONC(=O)[C@@H](C)Cc1cccc(C2(C)CCCC(C)(C)CS(=O)(=O)CCc3c(c(F)cc4[nH]ccc34)Oc3ccc(F)c(c3)-c3nc2nn3C)c1 (single isomer, unassigned) [Compound 147] | A (a TECC value less than 12 is marked “A”) | C (a value greater than 10 °C and less than or equal to 25 °C is marked “C”) |
| C[C@@H](Cc1cccc(C2(C)CCCC(C)(C)CS(=O)(=O)CCc3c(c(F)cc4[nH]ccc34)Oc3ccc(F)c(c3)-c3nc2nn3C)c1)C(=O)NOCC(O)CO (single isomer, unassigned) [Compound 148] | C (a value between 20 and 80 is marked “C”) | C (a value greater than 10 °C and less than or equal to 25 °C is marked “C”) |
